Data: PubChem BioAssay AID2060892 (Molecular Pharmacology Branch, DTP, NCI, 2025)

Test system: HOP-62 complex spheroids with HUVEC/MSC, viability
Experiment: Anticancer human tumor HOP-62 cell line growth inhibition [RAS];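 note: spheroids exposed to agents for seven days before readout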;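 for viability, T/C: 100% = DMSO vehicle control viability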
Conditions: for IC50: curve of first compound; for viability, T/C: stronger effect = lower value; active = viability on the fitted dose curve at most 10% of control; inactive = the rest
Procedure, shortened: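 Multi-cell-type spheroids: tumor cells plus HUVEC endothelial cells and mesenchymal stem cells. RAS-pathway inhibitors were combined with targeted agents, each dosed in half-log steps down from clinical Cmax, or from 10 microM when Cmax was unknown.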

[1] = second compound 0.0316 µM, first compound 0.0316 µM
[2] = second compound 0.0316 µM, first compound 0.1 µM
[3] = second compound 0.0316 µM, first compound 0.316 µM
[4] = second compound 0.0316 µM, first compound 1 µM
[5] = second compound 0.0316 µM, first compound 3.16 µM
[6] = second compound 0.0316 µM, first compound 10 µM
[7] = second compound 0.1 µM, first compound 0.0316 µM
[8] = second compound 0.1 µM, first compound 0.1 µM
[9] = second compound 0.1 µM, first compound 0.316 µM
[10] = second compound 0.1 µM, first compound 1 µM
[11] = second compound 0.1 µM, first compound 3.16 µM
[12] = second compound 0.1 µM, first compound 10 µM
[13] = second compound 0.316 µM, first compound 0.0316 µM
[14] = second compound 0.316 µM, first compound 0.1 µM
[15] = second compound 0.316 µM, first compound 0.316 µM
[16] = second compound 0.316 µM, first compound 1 µM
[17] = second compound 0.316 µM, first compound 3.16 µM
[18] = second compound 0.316 µM, first compound 10 µM
[19] = second compound 1 µM, first compound 0.0316 µM
[20] = second compound 1 µM, first compound 0.1 µM
[21] = second compound 1 µM, first compound 0.316 µM
[22] = second compound 1 µM, first compound 1 µM
[23] = second compound 1 µM, first compound 3.16 µM
[24] = second compound 1 µM, first compound 10 µM
[25] = second compound 3.16 µM, first compound 0.0316 µM
[26] = second compound 3.16 µM, first compound 0.1 µM
[27] = second compound 3.16 µM, first compound 0.316 µM
[28] = second compound 3.16 µM, first compound 1 µM
[29] = second compound 3.16 µM, first compound 3.16 µM
[30] = second compound 3.16 µM, first compound 10 µM
[31] = second compound 10 µM, first compound 0.0316 µM
[32] = second compound 10 µM, first compound 0.1 µM
[33] = second compound 10 µM, first compound 0.316 µM
[34] = second compound 10 µM, first compound 1 µM
[35] = second compound 10 µM, first compound 3.16 µM
[36] = second compound 10 µM, first compound 10 µM

Cc1nc(N2CCC3(CC2)COC(C)C3N)c(CO)nc1Sc1ccnc(N)c1Cl (stereo unspecified) + C#Cc1c(F)ccc2cc(O)cc(-c3ncc4c(N5CC6CCC(C5)N6)nc(OCC56CCCN5CC(F)C6)nc4c3F)c12
> 10000 nM: IC50 (second compound 0.0316 µM) | IC50 (second compound 0.1 µM)
< 31.6 nM: IC50 (second compound 10 µM)
3110 nM: IC50 (second compound 0.316 µM)
113 nM: IC50 (second compound 3.16 µM)
inactive: viability, T/C [1] 105% | viability, T/C [2] 112% | viability, T/C [3] 96.6% | viability, T/C [4] 82.5% | viability, T/C [5] 70.5% | viability, T/C [6] 64.8% | viability, T/C [7] 117% | viability, T/C [8] 97.7% | viability, T/C [9] 84.9% | viability, T/C [10] 79.1% | viability, T/C [11] 67.1% | viability, T/C [12] 48.5% | viability, T/C [13] 108% | viability, T/C [14] 97.6% | viability, T/C [15] 82.4% | viability, T/C [16] 64.8% | viability, T/C [17] 51.1% | viability, T/C [18] 34.5% | viability, T/C [19] 101% | viability, T/C [20] 79.5% | viability, T/C [21] 61.3% | viability, T/C [22] 46.6% | viability, T/C [23] 28.1% | viability, T/C [24] 25.6% | viability, T/C [25] 64.3% | viability, T/C [26] 51.3% | viability, T/C [27] 38.1% | viability, T/C [28] 27.1% | viability, T/C [29] 16.8% | viability, T/C [30] 11.2% | viability, T/C [31] 36.7% | viability, T/C [32] 32.4% | viability, T/C [33] 19.5% | viability, T/C [34] 10.1%
active: viability, T/C [35] 8.04% | viability, T/C [36] 8.15%
669 nM: IC50 (second compound 1 µM)

NC1c2ccccc2OC12CCN(c1cnc3c(N4CCCc5ncccc54)n[nH]c3n1)CC2 (stereo unspecified) + C#Cc1c(F)ccc2cc(O)cc(-c3ncc4c(N5CC6CCC(C5)N6)nc(OCC56CCCN5CC(F)C6)nc4c3F)c12
330 nM: IC50 (second compound 0.316 µM)
772 nM: IC50 (second compound 0.1 µM)
71.1 nM: IC50 (second compound 1 µM)
< 31.6 nM: IC50 (second compound 3.16 µM) | IC50 (second compound 10 µM)
1820 nM: IC50 (second compound 0.0316 µM)
inactive: viability, T/C [1] 103% | viability, T/C [2] 80.8% | viability, T/C [3] 73.7% | viability, T/C [4] 57.2% | viability, T/C [5] 45.7% | viability, T/C [6] 26.6% | viability, T/C [7] 92.4% | viability, T/C [8] 91.4% | viability, T/C [9] 61.5% | viability, T/C [10] 49.9% | viability, T/C [11] 28.6% | viability, T/C [12] 27.1% | viability, T/C [13] 90.9% | viability, T/C [14] 76.7% | viability, T/C [15] 49.8% | viability, T/C [16] 29.9% | viability, T/C [17] 22.3% | viability, T/C [18] 15.1% | viability, T/C [19] 60.2% | viability, T/C [20] 45.7% | viability, T/C [21] 29.7% | viability, T/C [22] 19.3% | viability, T/C [23] 13.8% | viability, T/C [24] 12.7% | viability, T/C [25] 40.9% | viability, T/C [26] 20.9% | viability, T/C [27] 15.6% | viability, T/C [28] 11.8% | viability, T/C [29] 10.8% | viability, T/C [30] 12.2% | viability, T/C [31] 16.2% | viability, T/C [32] 11% | viability, T/C [33] 7.6% | viability, T/C [34] 8.99% | viability, T/C [35] 8.52% | viability, T/C [36] 17.5%

Nc1ccn(C2OC(CO)C(O)C2(F)F)c(=O)n1 (stereo unspecified) + C#Cc1c(F)ccc2cc(O)cc(-c3ncc4c(N5CC6CCC(C5)N6)nc(OCC56CCCN5CC(F)C6)nc4c3F)c12
< 3.16 nM: IC50 (second compound 10 µM)
5.32 nM: IC50 (second compound 1 µM)
inactive: viability, T/C (second compound 0.0316 µM, first compound 0.00316 µM) 107% | viability, T/C (second compound 0.0316 µM, first compound 0.01 µM) 13.4% | viability, T/C (second compound 0.1 µM, first compound 0.00316 µM) 92.4% | viability, T/C (second compound 0.1 µM, first compound 0.01 µM) 11.2% | viability, T/C (second compound 0.316 µM, first compound 0.00316 µM) 97.4% | viability, T/C (second compound 0.316 µM, first compound 0.01 µM) 10.9% | viability, T/C (second compound 1 µM, first compound 0.00316 µM) 83.7% | viability, T/C (second compound 3.16 µM, first compound 0.00316 µM) 67.8% | viability, T/C (second compound 3.16 µM, first compound 0.01 µM) 12.5% | viability, T/C (second compound 10 µM, first compound 0.00316 µM) 39.5% | viability, T/C (second compound 10 µM, first compound 0.01 µM) 12.1%
6.38 nM: IC50 (second compound 0.0316 µM)
5.94 nM: IC50 (second compound 0.316 µM)
4.58 nM: IC50 (second compound 3.16 µM)
5.77 nM: IC50 (second compound 0.1 µM)
active: viability, T/C [1] 5.94% | viability, T/C [2] 5.61% | viability, T/C [3] 4.99% | viability, T/C [4] 6.52% | viability, T/C [7] 8.15% | viability, T/C [8] 4.9% | viability, T/C [9] 5.5% | viability, T/C [10] 6.42% | viability, T/C [13] 4.88% | viability, T/C [14] 4.68% | viability, T/C [15] 4.42% | viability, T/C [16] 4.04% | viability, T/C (second compound 1 µM, first compound 0.01 µM) 9.09% | viability, T/C [19] 4.77% | viability, T/C [20] 4.48% | viability, T/C [21] 3.43% | viability, T/C [22] 3.47% | viability, T/C [25] 5.06% | viability, T/C [26] 4.31% | viability, T/C [27] 5.01% | viability, T/C [28] 4.23% | viability, T/C [31] 8.09% | viability, T/C [32] 6.92% | viability, T/C [33] 8.08% | viability, T/C [34] 6.83%
